Literature values in patent publication US12017989B2, “Controlled release pharmaceutical formulations” (United Therapeutics Corporation, priority 2013, dated 2024).

Conditions: continuous subcutaneous infusion using a pump; Wade et al., J Clin Pharmacol 2004

SMILES: CCCCC[C@H](O)CC[C@@H]1[C@H]2Cc3cccc(OCC(=O)O)c3C[C@H]2C[C@H]1O [treprostinil]
- peak-to-trough variation of concentration profile: 20-30%
